# From paper PMC10893631, “Receptor-based pharmacophore modeling, molecular docking, synthesis and biological evaluation of novel VEGFR-2, FGFR-1, and BRAF multi-kinase inhibitors” (BMC Chemistry, 2024)
# Legend:
# Assay in all cases: NCI SRB growth inhibition (single dose 10 µM / five-dose)
# Type in all cases: cell-based, human
# HCT-15 = details: for GI50: HCT-15, Colon cancer, five-dose
# Outline: (§1)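 Test agents were dissolved in DMSO at 400-fold the top final concentration, diluted in medium with 50 µg/mL gentamicin, and tested at five concentrations.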
# NCI-H460 = details: for GI50: NCI-H460, Non-small cell lung cancer, five-dose
# Outline: as §1
# MDA-MB-435 = details: for GI50: MDA-MB-435, Melanoma, five-dose
# Outline: as §1
# KM12 = details: for GI50: KM12, Colon cancer, five-dose
# Outline: as §1
# PC-3 = test system: PC-3
# Outline: as §1
# IGROV1 = details: for GI50: IGROV1, Ovarian cancer, five-dose
# Outline: as §1
# SN12C = details: for GI50: SN12C, Renal cancer, five-dose
# Outline: as §1
# NCI-H522 = details: for GI50: NCI-H522, Non-small cell lung cancer, five-dose
# Outline: as §1
# A498 = details: for GI50: A498, Renal cancer, five-dose
# Outline: as §1
# HT29 = test system: HT29
# Outline: as §1
# OVCAR-3 = details: for GI50: OVCAR-3, Ovarian cancer, five-dose
# Outline: as §1
# SK-MEL-28 = details: for GI50: SK-MEL-28, Melanoma, five-dose
# Outline: as §1
# SF-295 = details: for GI50: SF-295, CNS cancer, five-dose
# Outline: as §1
# SK-MEL-5 = details: for GI50: SK-MEL-5, Melanoma, five-dose
# Outline: as §1
# CCRF-CEM = details: for GI50: CCRF-CEM, Leukemia, five-dose
# Outline: as §1
# SNB-75 = details: for GI50: SNB-75, CNS cancer, five-dose
# Outline: as §1
# NCI-H226 = details: for GI50: NCI-H226, Non-small cell lung cancer, five-dose
# Outline: as §1
# SF-268 = details: for GI50: SF-268, CNS cancer, five-dose
# Outline: as §1
# RXF 393 = details: for GI50: RXF 393, Renal cancer, five-dose
# Outline: as §1
# SK-OV-3 = details: for GI50: SK-OV-3, Ovarian cancer, five-dose
# Outline: as §1
# HOP-92 = test system: HOP-92
# Outline: as §1
# HOP-62 = details: for GI50: HOP-62, Non-small cell lung cancer, five-dose
# Outline: as §1
# MDA-MB-231/ATCC = details: for GI50: MDA-MB-231/ATCC, Breast cancer, five-dose
# Outline: as §1
# NCI/ADR-RES = details: for GI50: NCI/ADR-RES, Ovarian cancer, five-dose
# Outline: as §1
# NCI-H23 = details: for GI50: NCI-H23, Non-small cell lung cancer, five-dose
# Outline: as §1
# U251 = details: for GI50: U251, CNS cancer, five-dose
# Outline: as §1
compound,measurement,setting,value
"COc1ccc(-c2nc3cc(C(=O)NN=Cc4ccccc4O)ccc3[nH]2)cc1 [8h, N'-(2-Hydroxybenzylidene)-2-(4-methoxyphenyl)-1H-benzo[d]imidazole-5-carbohydrazide]",inhibition at 10 µM,"HCT-15; Homo sapiens, HCT-15 (Colon cancer), 10 µM, read-out: GI%",> 100%
same,GI50,HCT-15; Homo sapiens,1250 nM
same,inhibition at 10 µM,"NCI-H460; Homo sapiens, NCI-H460 (Non-small cell lung cancer), 10 µM, read-out: GI%",> 100%
same,GI50,NCI-H460; Homo sapiens,1870 nM
same,inhibition at 10 µM,"MDA-MB-435; Homo sapiens, MDA-MB-435 (Melanoma), 10 µM, read-out: GI%",> 100%
same,GI50,MDA-MB-435; Homo sapiens,1.95 µM
same,inhibition at 10 µM,"KM12; Homo sapiens, KM12 (Colon cancer), 10 µM, read-out: GI%",> 100%
same,GI50,KM12; Homo sapiens,4.24 µM
same,inhibition at 10 µM,"PC-3; Homo sapiens, PC-3 (Prostate cancer), 10 µM, read-out: GI%",> 100%
same,GI50,"PC-3; Homo sapiens, PC-3, Prostate cancer, five-dose",1770 nM
same,inhibition at 10 µM,"IGROV1; Homo sapiens, IGROV-1, IGROV1 (Ovarian cancer), 10 µM, read-out: GI%",> 100%
same,GI50,"IGROV1; Homo sapiens, IGROV-1",2.26 µM
same,inhibition at 10 µM,"SN12C; Homo sapiens, SN12C (Renal cancer), 10 µM, read-out: GI%",> 100%
same,GI50,SN12C; Homo sapiens,4.99 µM
same,inhibition at 10 µM,"NCI-H522; Homo sapiens, NCI-H522 (Non-small cell lung cancer), 10 µM, read-out: GI%",> 100%
same,GI50,NCI-H522; Homo sapiens,1540 nM
same,inhibition at 10 µM,"A498; Homo sapiens, A498 (Renal cancer), 10 µM, read-out: GI%",54.5%
same,GI50,A498; Homo sapiens,9.21 µM
same,inhibition at 10 µM,"HT29; Homo sapiens, HT-29, HT29 (Colon cancer), 10 µM, read-out: GI%",> 100%
same,inhibition at 10 µM,"OVCAR-3; Homo sapiens, OVCAR-3 (Ovarian cancer), 10 µM, read-out: GI%",> 100%
same,GI50,OVCAR-3; Homo sapiens,1980 nM
same,inhibition at 10 µM,"SK-MEL-28; Homo sapiens, SK-MEL-28 (Melanoma), 10 µM, read-out: GI%",> 100%
same,GI50,SK-MEL-28; Homo sapiens,2.96 µM
same,inhibition at 10 µM,"SF-295; Homo sapiens, SF-295 (CNS cancer), 10 µM, read-out: GI%",> 100%
same,GI50,SF-295; Homo sapiens,1260 nM
same,inhibition at 10 µM,"SK-MEL-5; Homo sapiens, SK-MEL-5 (Melanoma), 10 µM, read-out: GI%",> 100%
same,GI50,SK-MEL-5; Homo sapiens,1730 nM
same,inhibition at 10 µM,"CCRF-CEM; Homo sapiens, CCRF-CEM (Leukemia), 10 µM, read-out: GI%",94.3%
same,GI50,CCRF-CEM; Homo sapiens,920 nM
same,inhibition at 10 µM,"SNB-75; Homo sapiens, SNB-75 (CNS cancer), 10 µM, read-out: GI%",95.6%
same,GI50,SNB-75; Homo sapiens,390 nM
same,inhibition at 10 µM,"NCI-H226; Homo sapiens, NCI-H226 (Non-small cell lung cancer), 10 µM, read-out: GI%",> 100%
same,GI50,NCI-H226; Homo sapiens,6.94 µM
same,inhibition at 10 µM,"SF-268; Homo sapiens, SF-268 (CNS cancer), 10 µM, read-out: GI%",> 100%
same,GI50,SF-268; Homo sapiens,920 nM
same,inhibition at 10 µM,"RXF 393; Homo sapiens, RXF 393 (Renal cancer), 10 µM, read-out: GI%",> 100%
same,GI50,RXF 393; Homo sapiens,6.29 µM
same,inhibition at 10 µM,"SK-OV-3; Homo sapiens, SK-OV-3 (Ovarian cancer), 10 µM, read-out: GI%",> 100%
same,GI50,SK-OV-3; Homo sapiens,7.3 µM
same,inhibition at 10 µM,"HOP-92; Homo sapiens, HOP-92 (Non-small cell lung cancer), 10 µM, read-out: GI%",> 100%
same,GI50,"HOP-92; Homo sapiens, HOP-92, Non-small cell lung cancer, five-dose",2830 nM
same,inhibition at 10 µM,"HOP-62; Homo sapiens, HOP-62 (Non-small cell lung cancer), 10 µM, read-out: GI%",> 100%
same,GI50,HOP-62; Homo sapiens,5.09 µM
same,inhibition at 10 µM,"MDA-MB-231/ATCC; Homo sapiens, MDA-MB-231/ATCC (Breast cancer), 10 µM, read-out: GI%",98.7%
same,GI50,MDA-MB-231/ATCC; Homo sapiens,4.48 µM
same,inhibition at 10 µM,"NCI/ADR-RES; Homo sapiens, NCI/ADR-RES (Ovarian cancer), 10 µM, read-out: GI%",63.2%
same,GI50,NCI/ADR-RES; Homo sapiens,6.74 µM
same,inhibition at 10 µM,"NCI-H23; Homo sapiens, NCI-H23 (Non-small cell lung cancer), 10 µM, read-out: GI%",94.6%
same,GI50,NCI-H23; Homo sapiens,2060 nM
same,inhibition at 10 µM,"U251; Homo sapiens, U-251, U251 (CNS cancer), 10 µM, read-out: GI%",> 100%
same,GI50,"U251; Homo sapiens, U-251",1640 nM
N'-(2-Hydroxybenzylidene)-2-phenyl-1H-benzo[d]imidazole-5-carbohydrazide [8a],GI%,"HCT-15; HCT-15 (Colon cancer), 10 µM",94.00%
same,GI50,HCT-15,1070 nM
same,GI%,"NCI-H460; NCI-H460 (Non-small cell lung cancer), 10 µM",L (GI% > 100)
same,GI50,NCI-H460,2370 nM
same,GI%,"MDA-MB-435; MDA-MB-435 (Melanoma), 10 µM",63.10%
same,GI50,MDA-MB-435,5.77 µM
same,GI%,"KM12; KM12 (Colon cancer), 10 µM",84.00%
same,GI50,KM12,3.72 µM
same,GI%,"PC-3; PC-3 (Prostate cancer), 10 µM",90.74%
same,GI%,"IGROV1; IGROV1 (Ovarian cancer), 10 µM",82.83%
same,GI50,IGROV1,3.9 µM
same,GI50,SN12C,4.67 µM
same,GI%,"NCI-H522; NCI-H522 (Non-small cell lung cancer), 10 µM",L (GI% > 100)
same,GI50,NCI-H522,1870 nM
same,GI%,"A498; A498 (Renal cancer), 10 µM",– (GI% < 5%)
same,GI50,A498,16.9 µM
same,GI%,"HT29; HT29 (Colon cancer), 10 µM",L (GI% > 100)
same,GI50,"HT29; HT29, Colon cancer, five-dose",2630 nM
same,GI%,"OVCAR-3; OVCAR-3 (Ovarian cancer), 10 µM",L (GI% > 100)
same,GI50,OVCAR-3,1940 nM
same,GI%,"SK-MEL-28; SK-MEL-28 (Melanoma), 10 µM",82.67%
same,GI50,SK-MEL-28,4.62 µM
same,GI%,"SF-295; SF-295 (CNS cancer), 10 µM",L (GI% > 100)
same,GI50,SF-295,2700 nM
same,GI%,"SK-MEL-5; SK-MEL-5 (Melanoma), 10 µM",85.73%
same,GI50,SK-MEL-5,3750 nM
same,GI%,"CCRF-CEM; CCRF-CEM (Leukemia), 10 µM",88.16%
same,GI50,CCRF-CEM,260 nM
same,GI%,"SNB-75; SNB-75 (CNS cancer), 10 µM",L (GI% > 100)
same,GI50,SNB-75,2200 nM
same,GI%,"NCI-H226; NCI-H226 (Non-small cell lung cancer), 10 µM",93.32%
same,GI50,NCI-H226,4.02 µM
same,GI%,"SF-268; SF-268 (CNS cancer), 10 µM",L (GI% > 100)
same,GI50,SF-268,2780 nM
same,GI%,"RXF 393; RXF 393 (Renal cancer), 10 µM",L (GI% > 100)
same,GI50,RXF 393,2.37 µM
same,GI%,"SK-OV-3; SK-OV-3 (Ovarian cancer), 10 µM",L (GI% > 100)
same,GI50,SK-OV-3,2.62 µM
same,GI%,"HOP-92; HOP-92 (Non-small cell lung cancer), 10 µM",L (GI% > 100)
same,GI%,"HOP-62; HOP-62 (Non-small cell lung cancer), 10 µM",L (GI% > 100)
same,GI50,HOP-62,1.47 µM
same,GI%,"MDA-MB-231/ATCC; MDA-MB-231/ATCC (Breast cancer), 10 µM",88.16%
same,GI50,MDA-MB-231/ATCC,2.03 µM
same,GI%,"NCI/ADR-RES; NCI/ADR-RES (Ovarian cancer), 10 µM",63.15%
same,GI50,NCI/ADR-RES,3.51 µM
same,GI%,"NCI-H23; NCI-H23 (Non-small cell lung cancer), 10 µM",83.12%
same,GI50,NCI-H23,3310 nM
same,GI%,"U251; U251 (CNS cancer), 10 µM",L (GI% > 100)
same,GI50,U251,2110 nM
